Key:
[1] = tested on: RKO human colon adenocarcinoma cells (RKOp27), uninduced; assay: Alamar Blue cell viability assay, RKO p27 uninduced (proliferating cells); format: cell-based; conditions: 72 hours, read-out: Anti-proliferative/cytotoxic activity, -log IC50, RKO p27 uninduced (converted)
Experimental: The anti-proliferative/cytotoxic activity of the compounds described herein can be tested on subclones of RKO human colon adenocarcinoma cells (Schmidt et al., Oncogene 19, 2423-2429; 2000) using the Alamar Blue cell viability assay (described in O'Brien et al. Eur J Biochem 267, 5421-5426, 2000). The compounds are dissolved as 10 mM solutions in DMSO and subsequently diluted in semi-logarithmic steps. DMSO dilutions are further diluted 1:100 into Dulbecco's modified Eagle's medium (DMEM) containing 10% fetal calf serum to a final concentration twice as much as the final concentration in the test. RKO subclones are seeded into 96 well flat bottom plates at a density of 4000 cells per well in a volume of 50 μl per well. 24 hours after seeding the 50 μl each of the compound dilutions in DMEM medium are added into each well of the 96 well plate. Each compound dilution is tested as quadruplicates. Wells containing untreated control cells are filled with 50 μl DMEM medium containing 1% DMSO. […] To determine the viability of the cells, 10 μl of an Alamar Blue solution (Biosource) are added and the fluorescence is measured at an extinction of 544 nm and an emission of 590 nm. […] Viabilities are expressed as % values.
The corresponding IC50 values of the compounds for anti-proliferative/cytotoxic activity are determined from the concentration-effect curves.
To determine the cell cycle specific mode of action, subclones of RKO colon adenocarcinoma cells (RKOp27 as described by Schmidt et al. in Oncogene 19, 2423-2429; 2000) are seeded into 96 well flat bottom plates at a density of 16000 cells per well in a volume of 50 μl per well in DMEM growth medium with 10% FCS containing 10 μM Ponasterone A. 24 hours after seeding the 50 μl each of the compound dilutions in DMEM medium are added into each well of the 96-well plate. […] To determine the viability of the cells, 10 μl of an Alamar Blue solution (Biosource) are added and the fluorescence is measured at an extinction of 544 nm and an emission of 590 nm. […] Viabilities are expressed as % values. […]

[2] = tested on: RKO colon adenocarcinoma cells (RKOp27), arrested by p27Kip1 induced by Ponasterone A; assay: Alamar Blue cell viability assay, RKO p27 induced by Ponasterone A (arrested cells); format: cell-based; conditions: Homo sapiens, RKO p27 induced (10 μM Ponasterone A), 72 hours, read-out: Anti-proliferative/cytotoxic activity, -log IC50, RKO p27 induced (converted)
Experimental: To determine the cell cycle specific mode of action, subclones of RKO colon adenocarcinoma cells (RKOp27 as described by Schmidt et al. in Oncogene 19, 2423-2429; 2000) are seeded into 96 well flat bottom plates at a density of 16000 cells per well in a volume of 50 μl per well in DMEM growth medium with 10% FCS containing 10 μM Ponasterone A. 24 hours after seeding the 50 μl each of the compound dilutions in DMEM medium are added into each well of the 96-well plate. Each compound dilution is tested as quadruplicates. Wells containing untreated control cells are filled with 50 μl DMEM medium containing 1% DMSO. The cells are then incubated with the substances for 72 hours at 37° C. in a humidified atmosphere containing 5% carbon dioxide. To determine the viability of the cells, 10 μl of an Alamar Blue solution (Biosource) are added and the fluorescence is measured at an extinction of 544 nm and an emission of 590 nm. For the calculation of the cell viability the emission value from untreated cells is set as 100% viability and the emission rates of treated cells are set in relation to the values of untreated cells. Viabilities are expressed as % values. Viability is compared of proliferating cells grown in the absence of the inducer Ponasterone A, versus viability of cells arrested by the expression of ectopic p27Kip1 induced by Ponasterone A.

[3] = tested on: RKOp27 colon cancer cells; assay: Induction of apoptosis, Cell death detection ELISA; format: cell-based; conditions: Homo sapiens, 24 hours, relative to 50 μM cisplatin = 100 cpu, read-out: Apoptosis Induction, -log EC50 (converted)
Experimental: The induction of apoptosis can be measured by using a Cell death detection ELISA (Roche Biochemicals, Mannheim, Germany). RKOp27 colon cancer cells are seeded into 96 well flat bottom plates at a density of 10000 cells per well in a volume of 50 μl RPMI medium (containing 10% fetal calf serum) per well. 24 hours after seeding the 50 μl each of the compound dilutions in RPMI medium are added into each well of the 96 Well plate. Each compound dilution is tested at least as triplicates. Wells containing untreated control cells are filled with 50 μl RPMI medium containing 1% DMSO. The cells are then incubated with the substances for 24 hours at 37° C. in a humidified atmosphere containing 5% carbon dioxide. As a positive control for the induction of apoptosis, cells are treated with 50 μM Cisplatin (Gry Pharmaceuticals, Kirchzarten, Germany). Medium is then removed and the cells are lysed in 200 μl lysis buffer. After centrifugation as described by the manufacturer, 10 μl of cell lysate is processed as described in the protocol. The degree of apoptosis is calculated as follows: The absorbance at 405 nm obtained with lysates from cells treated with 50 μM cisplatin is set as 100 cpu (cisplatin units), while an absorbance at 405 nm of 0.0 was set as 0.0 cpu. The degree of apoptosis is expressed as cpu in relation to the value of 100 cpu reached with the lysates obtained from cells treated with 50 μM cisplatin. The corresponding EC50 values of the compounds for apoptosis inducing activity are determined from the concentration-effect curves.

[4] = tested on: NCl-H460 non-small cell lung cancer cells; assay: Mitotic spindle malformation by confocal laser scanning microscopy; format: cell-based; conditions: 1 μM, 24 hours, anti-alpha tubulin and Hoechst 33342 staining
Experimental: Experimental perturbation of Eg5 function causes a characteristic malformation of the mitotic spindle, which can be examined by confocal laser scanning microscopy. NCl-H460 non-small cell lung cancer cells are grown overnight on glass cover slips (Nunc™ Lab-Tek™ Chamber Slides) in 1800 μl DMEM medium containing 10% fetal calf serum. The test compounds are dissolved as 10 mM solutions in DMSO. Appropriate DMSO dilutions of the test compounds are further diluted 1:10 into DMEM medium containing 10% fetal calf serum to a final concentration ten times as much as the final concentration in the test. 24 hours after seeding, 200 μl of the compound dilutions in DMEM medium are added into each well of the cover slip. As a control, 200 μl DMEM medium containing 10% DMSO are added. 24 hours after incubation with the test compounds, the cells are washed with PBS, and fixed with 3.7% formaldehyde in H2O for 20 min. at 37° C. Subsequently, cells are washed with PBS and incubated with 0.1% Triton X-100 in a buffer containing 1.471 mM KH2PO4, 8.504 mM Na2HPO4, 137 mM NaCl, 1.325 mM CaCl2, 2.685 mM KCl, 0.542 mM MgCl2, pH 7.2 for 15 min. at room temperature. […]

Row | melting point | SMILES | IC50 [1] | IC50 [2] | EC50 [3] | Mitotic arrest / mitotic spindle phenotype [4]
1 | – | CN1C(=O)N2[C@H](c3cccc(O)c3)c3[nH]c4ccccc4c3C[C@@]2(C)C1=O [Example 2, (3aS,10R)-10-(3-Hydroxy-phenyl)-2,3a-dimethyl-3a,4,9,10-tetrahydro-2,9,10a-triaza-cyclopenty[b]fluorene-1,3-dione] | ≤ 631 nM | ≥ 100000 nM | ≤ 2510 nM | –
2 | 213.3 to 216.4 °C | CN1C(=O)C2Cc3c(sc4ccccc34)C(c3cccc(O)c3)N2C1=O [Example 3, (3aS,10R)-10-(3-Hydroxy-phenyl)-2-methyl-4,10-dihydro-3aH-9-thia-2,10-diaza-cyclopenta[b]fluorene-1,3-dione] | ≤ 631 nM | ≥ 100000 nM | ≤ 2510 nM | significant enrichment of cells arrested in mitosis
3 | 299 to 305 °C | CN1C(=O)N2C(c3cccc(O)c3)c3[nH]c4ccccc4c3CC2(C)C1=O (racemic) [Example 1, (±)-(3aSR,10RS)-10-(3-Hydroxy-phenyl)-2,3a-dimethyl-3a,4,9,10-tetrahydro-2,9,10a-triaza-cyclopenty[b]fluorene-1,3-dione] | ≤ 631 nM | ≥ 100000 nM | ≤ 2510 nM | significant enrichment of cells arrested in mitosis
4 | – | CN1C(=O)N2[C@H](c3cccc(O)c3)c3sc4ccccc4c3C[C@@]2(C)C1=O (racemic) [Example 5, (3aSR,10RS)-10-(3-Hydroxy-phenyl)-2,3a-dimethyl-4,10-dihydro-3aH-9-thia-2,10a-diaza-cyclopenta[b]fluorene-1,3-dione] | – | – | ≤ 2510 nM | –

Reference: patent publication US8044065B2, “Benzothienopyridines for use as inhibitors of Eg5 kinesin” (Altana Pharma AG, priority 2004, dated 2011)
